Series [1] concerns M. tuberculosis H37Rv. The series can be described thus: Minimum bactericidal concentration at pH 4.5 (MBC4.5), luminescence readout. In kind it is cell-based, Mycobacterium tuberculosis. The note with it: for MBC: Mycobacterium tuberculosis, H37RV, 168 h; for antitubercular activity (by MBC4.5, in words): pH 4.5.
The subject of series [2] is HepG2 cells. The series can be described thus: HepG2 cytotoxicity (CellTiter-Glo, 72 h). In kind it is cell-based. The note with it: Homo sapiens, mean ± standard deviation, replicates in parentheses.
Series [3] deals with M. tuberculosis membrane potential. The series can be described thus: M. tuberculosis membrane potential (DiOC2 red/green fluorescence ratio). The format is cell-based, Mycobacterium tuberculosis. Conditions: CCCP positive control.
The subject of series [4] is HepG2 cells. The format is cell-based, human. Conditions: pH 7.4. As for the experimental part:
Measurement of membrane potential in HepG2 human liver cells (ATCC) was adapted from the method published by Huang.[40] Cells were plated at a density of 50 000 cells per well (100 μL) in black-walled 96-well plates and incubated overnight. Culture medium was replaced with the same volume of assay buffer (80 mM NaCl, 75 mM KCl, 25 mM D-glucose, 25 mM HEPES pH 7.4) containing test compounds at indicated concentrations; CCCP and DMSO served as controls. Plates were incubated at 37 °C for 30 min, followed by incubation with 4 μM DiOC2 for 20 min at RT. Cells were washed 4 times with 150 μL assay buffer, and suspended in 100 μL of assay buffer. A Synergy H1 microplate reader (BioTek Instruments) was used to measure fluorescence (488 nm/530 nm and 488 nm/620 nm). Each test compound was evaluated in at least two replicate experiments.

[5] abbreviates: median, pH 4.5 phosphate citrate buffer, 7 days, 2-log reduction threshold, replicates in parentheses.

Converted amounts (≈) assume the structure as drawn. “Also recorded” adds a separate entry of the source. Where two headings read alike, the source gives them in different places.

As to `O=C(Nc1ccc(Cl)cc1)[C@@H]1CCCC[C@@H]1NS(=O)(=O)c1ccc(Br)cc1` (relative stereo) [Compound 30, cis-2-(4-bromophenylsulfonamido)-N-(4-chlorophenyl)cyclohexanecarboxamide], in series [1] (setting [5]), the MBC (commonly the smallest concentration meeting the test's criterion for killing) is more than 200 µM. Further, the 50% inhibitory concentration (IC50) (commonly the concentration needed to halve the response being measured) in series [2] stood at 76 ± 12 µM.

As for `O=C(Nc1ccc(Cl)cc1)[C@@H]1CCCC[C@H]1NS(=O)(=O)c1ccc(Br)cc1` (relative stereo) [Compound 31, trans-2-(4-bromophenylsulfonamido)-N-(4-chlorophenyl)cyclohexanecarboxamide], the minimal bactericidal concentration (MBC) in series [1] (setting [5]) is more than 200 µM. Further, the IC50 in series [2] is 67 ± 12 µM.

For the compound `O=C(Nc1ccc(Cl)cc1Cl)c1ccccc1NS(=O)(=O)c1ccc(Br)cc1` [Compound 1], in series [1] (setting [5]), the MBC is 6.3 µM (≈ 3.15 µg/mL) and the MBC4.5 is reported as 6.3 (5) μM. Further, in series [3], the “disruption of M. tuberculosis membrane potential at pH 5.6” value (shortened to “disruption … at pH 5.6”) is on record as “comparable disruption to CCCP at concentrations one or more orders of magnitude below their MBC4.5”. The “disruption of M. tuberculosis membrane potential at pH 6.8” value in series [3] (pH 6.8) is “depolarized the membrane nearly as strongly as known uncoupler carbonyl cyanide m-chlorophenyl hydrazone (CCCP)”. In addition, in series [2], the IC50 was 6.2 ± 1.1 µM.

In the case of `O=C(Nc1ccccc1)c1ccccc1NS(=O)(=O)c1ccc(Br)cc1` [Compound 4, 2-(4-bromophenylsulfonamido)-N-phenylbenzamide], the MBC in series [1] (setting [5]) stood at 100 µM (≈ 43.1 µg/mL). In addition, the “disruption … at pH 5.6” value in series [3] is “comparable disruption to CCCP at concentrations one or more orders of magnitude below their MBC4.5”. The “disruption of HepG2 cell membrane potential” value in series [4] (human, 30 min) is listed as “decrease in membrane potential in HepG2 cells comparable in magnitude to CCCP at concentrations significantly below the IC50”. The 50% inhibitory concentration (IC50) in series [2] is 30 ± 3.5 µM.

Turning to `CCNC(=O)c1ccccc1NS(=O)(=O)c1ccc(Br)cc1` [Compound 5, 2-(4-bromophenylsulfonamido)-N-ethylbenzamide], the minimum bactericidal concentration (MBC) in series [1] (setting [5]) is more than 200 µM. Besides, in series [2], the IC50 is more than 100 µM.

Regarding `NC(=O)c1ccccc1NS(=O)(=O)c1ccc(Br)cc1` [Compound 6, 2-(4-bromophenylsulfonamido)benzamide], the MBC in series [1] (setting [5]) was more than 200 µM. Besides, in series [3], the “disruption … at pH 5.6” value is recorded as “did not disrupt M. tuberculosis membrane potential”. For the same compound, in series [4] (human, 30 min), the “disruption of HepG2 cell membrane potential” value was “did not disrupt membrane potential at concentrations up to 200 μM”. The half-inhibitory concentration (IC50) in series [2] was more than 100 µM.

`O=C(Nc1ccc(Cl)cc1Cl)c1ccccc1NS(=O)(=O)c1ccccc1` [Compound 7, N-(2,4-dichlorophenyl)-2-(phenylsulfonamido)benzamide]: in series [1] (setting [5]), the MBC is more than 200 µM. Besides, the IC50 in series [2] is 19 ± 9.2 µM.

In the case of `Nc1ccccc1C(=O)Nc1ccc(Cl)cc1Cl` [Compound 9, 2-amino-N-(2,4-dichlorophenyl)benzamide], in series [1] (setting [5]), the MBC is 200 µM (≈ 56.2 µg/mL). Besides, the IC50 in series [2] was found to be 40 ± 2.3 µM.

In the case of `CCNc1ccccc1C(=O)Nc1ccc(Cl)cc1Cl` [Compound 10, N-(2,4-dichlorophenyl)-2-(ethylamino)benzamide], the MBC in series [1] (setting [5]) is more than 200 µM. Further, the “disruption … at pH 5.6” value in series [3] is “caused membrane hyperpolarization”. Besides, the “disruption of HepG2 cell membrane potential” value in series [4] (human, 30 min) is “did not disrupt membrane potential at concentrations up to 200 μM”. The half-inhibitory concentration (IC50) in series [2] is more than 100 µM.

As to `O=C(Nc1ccc(Cl)cc1Cl)c1ccccc1NCc1ccc(Br)cc1` [Compound 12, 2-((4-bromobenzyl)amino)-N-(2,4-dichlorophenyl)benzamide], the minimal bactericidal concentration (MBC) in series [1] (setting [5]) was more than 200 µM. Besides, in series [2], the IC50 is more than 100 µM.

As to `CC(=O)Nc1ccccc1C(=O)Nc1ccc(Cl)cc1Cl` [Compound 13, 2-acetamido-N-(2,4-dichlorophenyl)benzamide], the MBC in series [1] (setting [5]) is more than 200 µM. Besides, the 50% inhibitory concentration (IC50) in series [2] was more than 100 µM.

On to `O=C(Nc1ccccc1C(=O)Nc1ccc(Cl)cc1Cl)c1ccc(Br)cc1` [Compound 14, 2-(4-bromobenzamido)-N-(2,4-dichlorophenyl)benzamide], for which the MBC in series [1] (setting [5]) is more than 200 µM. Also, in series [2], the IC50 is more than 100 µM.

As to `CCCCNC(=O)c1ccccc1NS(=O)(=O)c1ccc(Br)cc1` [Compound 16, 2-(4-bromophenylsulfonamido)-N-butylbenzamide], the MBC in series [1] (setting [5]) turned out to be 100 µM (≈ 41.1 µg/mL). Further, the “antitubercular activity (by MBC4.5, in words)” value (from here on “antitubercular activity”) in series [1] is “showed measurable anti-tubercular activity”. Moreover, the “disruption … at pH 5.6” value in series [3] is recorded as “disruption at significantly lower concentrations relative to pH 6.8; also recorded: comparable disruption to CCCP at concentrations one or more orders of magnitude below their MBC4.5; also recorded: larger, more consistent degree of separation from DMSO than CCCP”. Further, the “disruption of HepG2 cell membrane potential” value in series [4] (human, 30 min) is on record as “decrease in membrane potential in HepG2 cells comparable in magnitude to CCCP at concentrations significantly below the IC50”. For the same compound, the half-maximal inhibitory concentration (IC50) in series [2] turned out to be 59 ± 0.71 µM.

Turning to `O=C(NC1CC1)c1ccccc1NS(=O)(=O)c1ccc(Br)cc1` [Compound 17, 2-(4-bromophenylsulfonamido)-N-cyclopropylbenzamide], the MBC in series [1] (setting [5]) was more than 200 µM. Also, the IC50 in series [2] was more than 100 µM.

For `C#CCNC(=O)c1ccccc1NS(=O)(=O)c1ccc(Br)cc1` [Compound 18, 2-(4-bromophenylsulfonamido)-N-(pro-2-yn-1-yl)benzamide], the MBC in series [1] (setting [5]) is more than 200 µM. Moreover, the IC50 in series [2] worked out at 83 ± 12 µM.

As for `O=C(NC1CCCCCC1)c1ccccc1NS(=O)(=O)c1ccc(Br)cc1` [Compound 19, 2-(4-bromophenylsulfonamido)-N-cycloheptylbenzamide], in series [1] (setting [5]), the minimal bactericidal concentration (MBC) was more than 200 µM. The IC50 in series [2] was determined as 24 ± 6.4 µM.

For the compound `O=C(NC1C2CC3CC(C2)CC1C3)c1ccccc1NS(=O)(=O)c1ccc(Br)cc1` (stereo not drawn) [Compound 20, N-(adamantan-2-yl)-2-(4-bromophenylsulfonamido)benzamide], the minimal bactericidal concentration (MBC) in series [1] (setting [5]) was more than 200 µM. Besides, in series [2], the IC50 was determined as 20 ± 4.2 µM.

Regarding `O=C(c1ccccc1NS(=O)(=O)c1ccc(Br)cc1)N1CCCCC1` [Compound 21, 4-bromo-N-(2-(piperidine-1-carbonyl)phenyl)benzenesulfonamide], the MBC in series [1] (setting [5]) was more than 200 µM. Also, the IC50 in series [2] was more than 100 µM.

Turning to `O=C(c1ccccc1NS(=O)(=O)c1ccc(Br)cc1)N1CCOCC1` [Compound 22, 4-bromo-N-(2-(morpholine-4-carbonyl)phenyl)benzenesulfonamide], the MBC in series [1] (setting [5]) was more than 200 µM. In series [2], the IC50 was more than 100 µM.

For `CN1CCN(C(=O)c2ccccc2NS(=O)(=O)c2ccc(Br)cc2)CC1` [Compound 23, 4-bromo-N-(2-(4-methylpiperizine-1-carbonyl)phenyl)benzenesulfonamide], the MBC in series [1] (setting [5]) was more than 200 µM. For the same compound, the concentration for half-maximal inhibition (IC50) in series [2] is more than 100 µM.

In the case of `O=C(Nc1ccc(Cl)cc1Cl)c1cccc(NS(=O)(=O)c2ccc(Br)cc2)c1` [Compound 26, 3-(4-bromophenylsulfonamido)-N-(2,4-dichlorophenyl)benzamide], the MBC in series [1] (setting [5]) was more than 200 µM. For the same compound, the “antitubercular activity” value in series [1] is “loss of antitubercular activity”. In addition, the IC50 in series [2] came out at 34 ± 3.5 µM.

Turning to `O=C(Nc1ccc(Cl)cc1Cl)c1ccccc1S(=O)(=O)c1ccc(Br)cc1` [Compound 27, 2-((4-bromophenyl)sulfonyl)-N-(2,4-dichlorophenyl)benzamide], in series [1] (setting [5]), the minimum bactericidal concentration (MBC) was more than 200 µM. In series [1], the “antitubercular activity” value is “loss of antitubercular activity”. Besides, the IC50 in series [2] worked out at 89 ± 18 µM.

Regarding `O=S(=O)(Nc1ccccc1CNc1ccc(Cl)cc1Cl)c1ccc(Br)cc1` [Compound 28, 4-bromo-N-(2-(((2,4-dichlorophenyl)amino)methyl)phenyl)benzenesulfonamide], in series [1] (setting [5]), the minimal bactericidal concentration (MBC) is more than 200 µM. Further, the IC50 in series [2] came to 33 µM.

For the compound `O=S(=O)(Nc1ccccc1COc1ccc(Cl)cc1Cl)c1ccc(Br)cc1` [Compound 29, 4-bromo-N-(2-((2,4-dichlorophenoxy)methyl)phenyl)benzenesulfonamide], in series [1] (setting [5]), the MBC was more than 200 µM. Further, in series [2], the IC50 stood at 24 ± 6.4 µM.

`O=C(Nc1ccc(Cl)cc1)c1ncccc1NS(=O)(=O)c1ccc(Br)cc1` [Compound 32, 3-(4-bromophenylsulfonamido)-N-(4-chlorophenyl)picolinamide]: the MBC in series [1] (setting [5]) was more than 200 µM. The IC50 in series [2] was 5 ± 1.4 µM.

In the case of `O=C(Nc1ccc(Cl)cc1)c1cccnc1NS(=O)(=O)c1ccc(Br)cc1` [Compound 33, 2-(4-bromophenylsulfonamido)-N-(4-chlorophenyl)nicotinamide], in series [1] (setting [5]), the MBC is more than 200 µM. Further, the IC50 in series [2] was 20 ± 5.7 µM.

On to `FC(F)(F)c1nc2ccc3nsnc3c2[nH]1` [Compound 34], for which, in series [1] (setting [5]), the minimal bactericidal concentration (MBC) was determined as 75 µM (≈ 18.3 µg/mL). Also, the IC50 in series [2] came out at 70 ± 11 µM.

With `CCn1cnc2c3nsnc3ccc21` [Compound 35], in series [1] (setting [5]), the minimal bactericidal concentration (MBC) was 75 µM (≈ 15.3 µg/mL). Besides, in series [2], the IC50 is more than 100 µM.

Consider `Nc1ccc2[nH]c(C3CCCCC3)nc2c1` [Compound 36], for which the MBC in series [1] (setting [5]) worked out at 100 µM (≈ 21.5 µg/mL). Besides, in series [2], the concentration for half-maximal inhibition (IC50) is more than 100 µM.

For the compound `Cc1nnc(Sc2ccc3nsnc3c2[N+](=O)[O-])s1` [Compound 37], in series [1] (setting [5]), the MBC was found to be 19 µM (≈ 5.92 µg/mL). The “disruption of HepG2 cell membrane potential” value in series [4] is “drop in membrane potential”. In addition, the IC50 in series [2] stood at 5.6 ± 3.2 µM.

Regarding `O=[N+]([O-])c1c(Sc2ccccn2)ccc2nsnc12` [Compound 38], the MBC in series [1] (setting [5]) amounted to 25 µM (≈ 7.26 µg/mL). Also, the “disruption of HepG2 cell membrane potential” value in series [4] is “drop in membrane potential”. Further, in series [2], the IC50 is 4.8 ± 0.86 µM.

Values taken from paper PMC6596218, “Anthranilic amide and imidazobenzothiadiazole compounds disrupt Mycobacterium tuberculosis membrane potential” (MedChemComm, 2019).
